This assay relates to Catharanthus roseus. In words: Split-root Catharanthus roseus seedlings: Root A stimulated, exudates analysed by MRM-LC-MS/MS. The format is in vivo. To be noted: applied to Root A; Root B exudate a week after stimulation; FIG. 16B. As for the experimental part:
Split roots are generated by cutting off the primary root. Lateral roots are then regenerated until they are long enough for the lateral roots to be placed directly in separate hydroponics or aeroponics containers. Each container is fed with plant medium.
Catharanthus roseus were grown, and split roots were obtained using the methods of Example 2. After lateral roots emerged, roots were aseptically placed separately in two 20 ml glass containers containing 0.5× Hoagland nutrient solution. Similar to Example 8, Root A of seedlings was stimulated with methyl-jasmonate, while growing in hydroponics using plant nutrient medium. Plants were incubated at 24° C. with a photoperiod of 16 h. A week after stimulation, the plant medium containing exudates from Root A and B were collected, filtered and extracted for LC-MS analysis. FIG. 16A depicts the MRM-LC-MS/MS analysis of C. roseus exudates. Vinca alkaloids present in the exudates of Root B after methyl jasmonate stimulation (FIG. 16A, top) and control plants (FIG. 16A, bottom) were analyzed via total ion current chromatograms. The quantification of three vinca alkaloids (19S-Vindolinine_RT_3.93, Vindolinine_RT_4.96, and Catarantine_11.77) was performed using an external standard curve of these three metabolites (FIG. 16B). […]

Consider `CC/C=C\CC1C(=O)CCC1CC(=O)OC` (stereo not shown) [Methyl jasmonate, methyl jasmonate], for which the “Vindolinine found in Root B exudate of treated plants, fold increase” value is recorded as “up to 32 ×”.
